From US9169254B2, “Spiroimidazolone derivative” (Chugai Seiyaku Kabushiki Kaisha, priority 2009, dated 2015)

Each compound was assayed against T1, human PTH1 receptor (Homo sapiens, UniProt Q03431) (assay: In vitro cAMP signal activity in HKRK-B7 cells (LLC-PK1 cells overexpressing the human PTH1 receptor)). Settings: HKRK-B7 cells; compound at 1×10^−3 M; cAMP produced as percentage of that produced by hPTH(1-34) at 100 nM.
T1 sequence (Q03431 27-593): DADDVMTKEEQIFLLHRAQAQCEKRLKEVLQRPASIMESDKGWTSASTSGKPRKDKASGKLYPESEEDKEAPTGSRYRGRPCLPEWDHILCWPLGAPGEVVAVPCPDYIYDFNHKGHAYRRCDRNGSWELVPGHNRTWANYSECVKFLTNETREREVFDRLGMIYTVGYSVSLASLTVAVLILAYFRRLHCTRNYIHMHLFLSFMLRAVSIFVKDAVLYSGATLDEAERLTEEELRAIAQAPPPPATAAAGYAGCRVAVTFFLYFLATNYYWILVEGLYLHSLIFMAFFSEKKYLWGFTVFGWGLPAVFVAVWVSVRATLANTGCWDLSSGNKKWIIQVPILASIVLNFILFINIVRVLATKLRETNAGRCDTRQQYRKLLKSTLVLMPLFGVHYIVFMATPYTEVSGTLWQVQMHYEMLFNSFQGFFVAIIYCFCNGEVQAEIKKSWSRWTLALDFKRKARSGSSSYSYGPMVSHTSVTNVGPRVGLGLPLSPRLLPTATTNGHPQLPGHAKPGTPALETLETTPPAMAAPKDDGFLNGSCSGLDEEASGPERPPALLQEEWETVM
Type: cell-based

Compound	cAMP production activity (%)
Cc1cc(C(=O)N2CCC(O)(CF)CC2)cc(C)c1/C=C/S(=O)(=O)N1CCC2(CC1)N=C(C1CCC(CCC(F)(F)F)CC1)NC2=O (stereo not drawn) [Compound 990, 8-{(E)-2-[4-(4-fluoromethyl-4-hydroxy-piperidine-1-carbonyl)-2,6-dimethyl-phenyl]-ethenesulfonyl}-2-[4-(3,3,3-trifluoro-propyl)-cyclohexyl]-1,3,8-triaza-spiro[4.5]dec-1-en-4-one]	87%
Cc1cc(C(=O)N2CCN(C)CC2)cc(C)c1/C=C/S(=O)(=O)N1CCC2(CC1)N=C(C1CCC(CCC(F)(F)F)CC1)NC2=O (stereo not drawn) [Compound 991, 8-{(E)-2-[2,6-dimethyl-4-(4-methyl-piperazine-1-carbonyl)-phenyl]-ethenesulfonyl}-2-[4-(3,3,3-trifluoro-propyl)-cyclohexyl]-1,3,8-triaza-spiro[4.5]dec-1-en-4-one]	64%
Cc1cc(C(=O)N2CCC(OC[C@H](O)CO)CC2)cc(C)c1/C=C/S(=O)(=O)N1CCC2(CC1)N=C(C1CCC(CCC(F)(F)F)CC1)NC2=O (stereo partly drawn) [Compound 993, 8-((E)-2-{4-[4-((R)-2,3-dihydroxy-propoxy)-piperidine-1-carbonyl]-2,6-dimethyl-phenyl}-ethenesulfonyl)-2-[4-(3,3,3-trifluoro-propyl)-cyclohexyl]-1,3,8-triaza-spiro[4.5]dec-1-en-4-one]	64%
Cc1cc(C(=O)N(C)C)cc(C)c1/C=C/S(=O)(=O)N1CCC2(CC1)N=C(C1CCC(CCC(F)(F)F)CC1)NC2=O (stereo not drawn) [Compound 994, 3,5,N,N-tetramethyl-4-((E)-2-{4-oxo-2-[4-(3,3,3-trifluoro-propyl)-cyclohexyl]-1,3,8-triaza-spiro[4.5]dec-1-ene-8-sulfonyl}-vinyl)-benzamide]	87%
Cc1cc(C(=O)N2CCN(C)CC2)cc(C)c1CCS(=O)(=O)N1CCC2(CC1)N=C(C1CCC(CCC(F)(F)F)CC1)NC2=O (stereo not drawn) [Compound 995, 8-{2-[2,6-Dimethyl-4-(4-methyl-piperazine-1-carbonyl)-phenyl]-ethanesulfonyl}-2-[4-(3,3,3-trifluoro-propyl)-cyclohexyl]-1,3,8-triaza-spiro[4.5]dec-1-en-4-one]	98%
Cc1cc(C(=O)N2CCCN2)cc(C)c1/C=C/S(=O)(=O)N1CCC2(CC1)N=C(C1CCC(CCC(F)(F)F)CC1)NC2=O (stereo not drawn) [Compound 997, 8-{(E)-2-[2,6-dimethyl-4-(pyrazolidine-1-carbonyl)-phenyl]-ethenesulfonyl}-2-[4-(3,3,3-trifluoro-propyl)-cyclohexyl]-1,3,8-triaza-spiro[4.5]dec-1-en-4-one]	74%

More lines, now with the values ahead:

cAMP production activity (%)	Compound
86%	Cc1cc(C(=O)N2CCC(C)(O)CC2)cc(C)c1/C=C/S(=O)(=O)N1CCC2(CC1)N=C(C1CCC(CCC(F)(F)F)CC1)NC2=O (stereo not drawn) [Compound 989, 8-{(E)-2-[4-(4-Hydroxy-4-methyl-piperidine-1-carbonyl)-2,6-dimethyl-phenyl]-ethenesulfonyl}-2-[4-(3,3,3-trifluoro-propyl)-cyclohexyl]-1,3,8-triaza-spiro[4.5]dec-1-en-4-one]
65%	Cc1cc(C(=O)N2CCCO2)cc(C)c1/C=C/S(=O)(=O)N1CCC2(CC1)N=C(C1CCC(CCC(F)(F)F)CC1)NC2=O (stereo not drawn) [Compound 992, 8-{(E)-2-[4-(isoxazolidine-2-carbonyl)-2,6-dimethyl-phenyl]-ethenesulfonyl}-2-[4-(3,3,3-trifluoro-propyl)-cyclohexyl]-1,3,8-triaza-spiro[4.5]dec-1-en-4-one]
85%	Cc1cc(C(=O)NN)cc(C)c1/C=C/S(=O)(=O)N1CCC2(CC1)N=C(C1CCC(CCC(F)(F)F)CC1)NC2=O (stereo not drawn) [Compound 996, 3,5-Dimethyl-4-((E)-2-{4-oxo-2-[4-(3,3,3-trifluoro-propyl)-cyclohexyl]-1,3,8-triaza-spiro[4.5]dec-1-ene-8-sulfonyl}-vinyl)-benzoic acid hydrazide]
